According to ChEMBL document CHEMBL3585318, “Effect of water solvation on the lipophilicity of isomeric pyrimidine-carboxamides” (Bioorg Med Chem, 2015):

Experiments:
Type in all cases: physicochemical
[1] = Lipophilicity, log D of the compound at pH 7.4 by UV/Vis spectroscopy based shake-flask method; settings: buffer
[2] = Partition coefficient of buffer-octanol system, logP of the compound by shake-flask method
[3] = Dissociation constant, pKa of the compound

Row | logD [1] | logP [2] | pKa [3] | Structure (SMILES)
1 | 2.6 | 2.5 | 2.4 | CCNC(=O)c1cc(OC)nc(N(C)C)n1
2 | 0.8 | 0.9 |  | O=C1CCCc2ccncc21
3 | 1.6 | 1.7 | 3.8 | CCNC(=O)c1cc(N(C)C)nc(OC)n1
4 | 1 | 1.5 |  | O=C1CCCc2cnccc21
5 | 1 | 1.1 | 2.9 | CCNC(=O)c1nc(OC)cc(N(C)C)n1
6 | 0.9 | 1.2 |  | O=C1CCCc2ncccc21

Row | Structure (SMILES) | logD [1] | logP [2] | pKa [3]
7 | O=C1CCCc2cccnc21 | 0.2 | 0.4 | 
